Data taken from PMC6021034, “Novel FFA1 (GPR40) agonists containing spirocyclic periphery: polar azine periphery as a driver of potency” (Journal of Enzyme Inhibition and Medicinal Chemistry, 2016).
Read-outs that look alike come from different tables or passages of the source.

Assays:
[1] = biological target: human GPR40 (Homo sapiens, UniProt O14842); test: Calcium flux (FLIPR, Fluo-8) agonist assay in CHO cells stably expressing human GPR40; format: cell-based; conditions: for % FFA1 activation at 5 μM: relative to GPR40 activation by 20 μM of GW9509, n = 2
Procedure: Determination of agonistic activity of compounds against FFA1 (GPR40) receptor
CHO cells stably expressing human GPR40 (stable CHO-GPR40 line created at Enamine Ltd., Kyiv, Ukraine) were seeded (12 500 cells/well) into 384-well black-wall, clear-bottom microtiter plates 24 h prior to assay. Cells were loaded for 1 h with fluorescent calcium dye (Fluo-8 Calcium Assay kit, Abcam, ab112129, Cambridge, UK) and tested using fluorometric imaging plate reader (FLIPR Tetra® High Throughput Cellular Screening System, Molecular Devices Corp., Sunnyvale, CA). Maximum change in fluorescence over base line was used to determine agonist response. A potent and selective agonist for FFA1 (GPR40) GW9508 (Selleckchem, S8014) was tested with the test compounds as a positive control. Concentration response curve data were fitted using Molecular Devices ScreenWorks® System Control Software (Molecular Devices). The half-maximal effective concentration was determined from these curves plotted in “% FFA1 activation − log[drug]” coordinates and % maximum efficacy was related to that of the reference compounds GW9508.

[2] = tested on: FFA1; conditions: cited from earlier work
[3] = tested on: FFA1; set-up: method as in PMID 24900210; conditions: cited from earlier work
[4] = dose-response (% FFA1 activation) mode, read-out: EC50

Chain of human GPR40 (O14842 whole entry): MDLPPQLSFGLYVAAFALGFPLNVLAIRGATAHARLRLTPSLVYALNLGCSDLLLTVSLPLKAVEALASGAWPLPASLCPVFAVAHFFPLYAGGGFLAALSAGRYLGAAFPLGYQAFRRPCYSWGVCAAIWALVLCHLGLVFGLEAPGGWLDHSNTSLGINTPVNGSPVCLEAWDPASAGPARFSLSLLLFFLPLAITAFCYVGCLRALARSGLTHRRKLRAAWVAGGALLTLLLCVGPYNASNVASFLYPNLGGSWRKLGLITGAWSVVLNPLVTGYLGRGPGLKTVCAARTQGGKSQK

Row | % FFA1 activation at 5 μM [1] [%] | EC50 [1, 4] [µM] | Compound | also measured
1 | 80.0 | 1.62 | Cl.Cl.O=C(O)CCc1ccc(OCc2ccc(CN3CCC4(CC3)CC(Oc3ncccn3)CCO4)cc2)cc1 (stereo not shown) [Compound 4b, 3-{4-[(4-{[4-(Pyrimidin-2-yloxy)-1-oxa-9-azaspiro[5.5]undec-9-yl]methyl}benzyl)oxy]phenyl} propanoic aciddihydrochloride] | % Efficacy ([1]; maximum efficacy relative to GPR40 activation by 20 μM of GW9509, n = 2): 80%
2 | 61.4 | – | Cl.Cl.O=C(O)CCc1ccc(OCc2ccc(CN3CCC4(CC3)CC(Oc3ccccn3)CCO4)cc2)cc1 (stereo not shown) [Compound 4c, 3-{4-[(4-{[4-(Pyridin-2-yloxy)-1-oxa-9-azaspiro[5.5]undec-9-yl]methyl}benzyl)oxy]phenyl}propanoic acid dihydrochloride] | Emax ([1]; CHO, maximum efficacy relative to GPR40 activation by 20 μM of GW9509, n = 2): 61%; EC50 ([1]; Table 2, compounds investigated in this work, read-out: FFA1 EC50): 0.9 µM
3 | 13.6 | > 20 | Cl.Cl.O=C(O)CCc1ccc(OCc2ccc(CN3CCC4(CC3)CC(Oc3ccncc3)CCO4)cc2)cc1 (stereo not shown) [Compound 4d, 3-{4-[(4-{[4-(Pyridin-4-yloxy)-1-oxa-9-azaspiro[5.5]undec-9-yl]methyl}benzyl)oxy]phenyl}propanoic acid dihydrochloride] | –
4 | 9.9 | > 20 | CNC(=O)CC1CCOC2(CCN(Cc3ccc(COc4ccc(CCC(=O)O)cc4)cc3)CC2)C1.Cl (stereo not shown) [Compound 4g, 3-(4-{[4-({4-[2-(Methylamino)-2-oxoethyl]-1-oxa-9-azaspiro[5.5]undec-9-yl}methyl)benzyl]oxy}phenyl)propanoic acid hydrochloride] | –
5 | 10.0 | > 20 | Cl.Cl.O=C(O)CCc1ccc(OCc2ccc(CN3CCC4(CC3)CC(CC(=O)NCc3ccncc3)CCO4)cc2)cc1 (stereo not shown) [Compound 4h, 3-[4-({4-[(4-{2-Oxo-2-[(pyridin-4-ylmethyl)amino]ethyl}-1-oxa-9-azaspiro[5.5]undec-9-yl)methyl]benzyl}oxy)phenyl]propanoic acid dihydrochloride] | –
6 | 11.6 | > 20 | Cl.Cl.O=C(O)CCc1ccc(OCc2ccc(CN3CCC4(CC3)CC(CC(=O)NCc3cccnc3)CCO4)cc2)cc1 (stereo not shown) [Compound 4i, 3-[4-({4-[(4-{2-Oxo-2-[(pyridin-3-ylmethyl)amino]ethyl}-1-oxa-9-azaspiro[5.5]undec-9-yl)methyl]benzyl}oxy)phenyl]propanoic acid dihydrochloride] | –

Further lines, the compound ahead of its results:

Row | Compound | % FFA1 activation at 5 μM [1] [%] | EC50 [1, 4] [µM] | also measured
7 | 3-{4-[(4-{[4-(Pyrazin-2-yloxy)-1-oxa-9-azaspiro[5.5]undec-9-yl]methyl}benzyl)oxy]phenyl}propanoic acid dihydrochloride [Compound 4a] | 32.5 | – | –
8 | Cl.Cl.O=C(O)CCc1ccc(OCc2ccc(CN3CCC4(CC3)CC(N3CCCC3)CCO4)cc2)cc1 (stereo not shown) [Compound 4e, 3-[4-({4-[(4-Pyrrolidin-1-yl-1-oxa-9-azaspiro[5.5]undec-9-yl)methyl]benzyl}oxy)phenyl]propanoic acid dihydrochloride] | 9.1 | > 20 | –
9 | Cl.Cl.O=C(O)CCc1ccc(OCc2ccc(CN3CCC4(CC3)CC(N3CCOCC3)CCO4)cc2)cc1 (stereo not shown) [Compound 4f, 3-[4-({4-[(4-Morpholin-4-yl-1-oxa-9-azaspiro[5.5]undec-9-yl)methyl]benzyl}oxy)phenyl]propanoic acid dihydrochloride] | 10.2 | > 20 | –
10 | O=C(O)CCc1ccc(OCc2ccc(CN3CCC4(CCCCO4)CC3)cc2)cc1 [Compound 7] | – | – | EC50 ([2]; reported earlier): > 20 µM; FFA1 agonist activity (in words) ([2]; tested earlier): inactive
11 | Cc1cc(OCCCS(C)(=O)=O)cc(C)c1-c1cccc(COc2ccc3c(c2)OC[C@H]3CC(=O)O)c1 [TAK-875, fasiglifam] | – | – | EC50 [3]: 0.014 µM
